Measured values taken from PMC7525011, “Mycobacterium tuberculosis Calcium Pump CtpF Modulates the Autophagosome in an mTOR-Dependent Manner” (Frontiers in Cellular and Infection Microbiology, 2020).

Molecular target: CtpF (Mycobacterium tuberculosis, UniProt P9WPS9)
Conditions: with Ca2+ or Mg2+; 1 mM ATP; 60 mM Tris pH 7.4, 100 mM KCl; described as competitive inhibitor

CtpF, sequence (P9WPS9 whole entry): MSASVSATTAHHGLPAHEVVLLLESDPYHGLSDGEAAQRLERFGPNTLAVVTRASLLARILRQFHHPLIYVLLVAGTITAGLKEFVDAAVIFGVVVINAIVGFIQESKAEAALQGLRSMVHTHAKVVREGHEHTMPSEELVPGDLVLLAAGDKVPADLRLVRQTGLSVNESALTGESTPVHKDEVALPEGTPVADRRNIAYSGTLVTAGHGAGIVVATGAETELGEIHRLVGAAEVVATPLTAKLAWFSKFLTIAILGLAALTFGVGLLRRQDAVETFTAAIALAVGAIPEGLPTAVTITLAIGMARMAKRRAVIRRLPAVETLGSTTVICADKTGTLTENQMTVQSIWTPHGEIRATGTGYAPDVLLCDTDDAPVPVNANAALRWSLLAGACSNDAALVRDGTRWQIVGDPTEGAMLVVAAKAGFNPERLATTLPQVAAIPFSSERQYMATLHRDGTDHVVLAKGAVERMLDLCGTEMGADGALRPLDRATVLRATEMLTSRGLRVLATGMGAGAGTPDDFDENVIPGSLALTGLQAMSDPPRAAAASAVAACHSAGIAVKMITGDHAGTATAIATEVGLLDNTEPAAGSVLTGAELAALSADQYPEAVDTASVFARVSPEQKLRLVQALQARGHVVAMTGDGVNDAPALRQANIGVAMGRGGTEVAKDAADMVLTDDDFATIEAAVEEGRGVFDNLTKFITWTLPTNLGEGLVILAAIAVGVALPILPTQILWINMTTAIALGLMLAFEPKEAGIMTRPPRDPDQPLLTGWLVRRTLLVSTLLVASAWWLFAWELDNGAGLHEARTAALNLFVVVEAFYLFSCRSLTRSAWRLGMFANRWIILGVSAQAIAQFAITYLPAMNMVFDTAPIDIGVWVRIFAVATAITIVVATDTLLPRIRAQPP

[O]=[V]([OH])([OH])[OH] [sodium orthovanadate]
complete inhibition of Pi release: sodium orthovanadate, a competitive inhibitor of ATPase activity was used in the reaction
